Laboratory results from patent US20240424119A1, “USE OF POLYPEPTIDE IN RESISTANCE TO ADDICTION AND RELAPSE THEREOF, AND COMPLEX AND POLYPEPTIDE” (SHENZHEN CHENYANG BIOLOGICAL TECHNOLOGY CO., LTD, priority 2021, published 2024).
No end group written: not given here.

B1: IL3 region of D2R: GST fusion protein containing the IL3 region of D2R (K211-Q373) (protein)
chain: KIYIVLRRRRKRVNTKRSSRAFRAHLRAPLKGNCTHPEDMKLCTVIMKSNGSFPVNRRRVEAARRAQELEMEMLSSTSPPERTRYSPIPPSHHQLTLPDPSHHGLHSTPDSPAKPEKNGHAKDHPKIAKIFEIQTMPNGKTRTSLKTMSRRKLSQQKEKKATQ
modifications: left off: a dimerising Fc or GST; large carriers; small tags and cut ends

How the values were obtained:
NR2B = target: T1, NR2B (Mus musculus, UniProt Q01097); experiment: GST-pulldown of NR2B from hippocampus extract by GST fusion proteins of D2R regions; format: binding; settings: 500 μg hippocampus extract, overnight, 4° C.
T1 construct: from tissue; host or cells: hippocampus extract
Method: In order to search for the physical interaction site between D2R and NR2B, cDNA fragments of the CT region of D2R (T428-C443) and the third intracellular loop (IL3) region of D2R (K211-Q373) were first obtained via the D2R full-length cDNA clone (Genbank Accession No.: M29066.1). These fragments were subcloned to the BamH1/EcoR1 or BamH1/Xho1 site of a pGEX-4T-3 plasmid (YouBio, Item No: VT1255). Initiation methionine residue and termination codon were added as appropriate. All constructs were resequenced to confirm that splice fusion was achieved appropriately. The GST fusion protein containing the IL3 region of D2R (GST-D2R-IL3) and the GST fusion protein containing the CT region of D2R (GST-D2R-CT) were obtained by using E.coli BL21 viable cells (AlpalifeBio, Item No: KTSM104L) for expression and purifying them from bacterial lysate, wherein the specific positions of the coding sequences of IL3 region and CT region on D2R were shown in FIG. 2.
500 μg of dissolved hippocampus extract was diluted with 1×PBS/0.1% Triton X-100 and incubated overnight with 20 μl protein GST resin (TransGen Biotech, Item No: N21220, Beijing, China) saturated with GST protein only or with the prepared 15 µg GST fusion protein at 4° C. Beads were washed 1-8 times with 1×PBS/0.1% Triton X-100. Binding proteins were eluted with 2×loading buffer, separated by SDS-PAGE, and subjected to Western blot with respective antibodies thereof, and the results were shown in A of FIG. 3.
Next, in order to further explore the interaction sequence/site between D2R and NR2B, the IL3 region was divided into KVC (K211-V270) region of D2R, ES (E271-S321) region of D2R and PQ (P322-Q373) region of D2R.
According to the method in the present Example, a pulldown analysis was performed using a GST fusion protein containing the KVC region of D2R (GST-D2R-KVC), a GST fusion protein containing the ES region of D2R (GST-D2R-ES), and a GST fusion protein containing the PQ region of D2R (GST-D2R-PQ), and the results of Western blot were shown in B of FIG. 3.
Further, the KVC region was divided into KT (K211-T225) region of D2R, KL (K226-L240) region of D2R, KV (K241-V255) region of D2R, and IV (1256-V270) region of D2R.
According to the method in the present Example, a pulldown analysis was performed using a GST fusion protein containing the KT region of D2R (GST-D2R-KT), the GST fusion protein containing the KL region of D2R (GST-D2R-KL), a GST fusion protein containing the KV region of D2R (GST-D2R-KV), and a GST fusion protein containing the IV region of D2R (GST-D2R-IV), and the results of Western blot were shown in C of FIG. 3.

[1] = system: morphine-induced CPP in mice; experiment: Effects of different polypeptides on morphine-induced CPP in mice; format: in vivo; settings: 3 nmol/g i.p. on Day 10, recorded on the second day after administration; TAT fusion peptides; n=12
Method: The CPP equipment used in the experiment has two equal-volume chambers (15 cm×15 cm×37 cm) with a movable door in the middle. Mice could freely shuttle between chambers during testing, or were limited to one side of the chamber during training. The interior of one chamber is black and the bottom is striped, while the other chamber is white and the bottom is latticed. All behavioral tests, including distance and time of activity, were recorded by a camera and calculated using the SMART Video Tracking System (Version 2.5; Panlab Technology for Biosearch, Spain).
On Day 1, mice were allowed to explore two chambers freely for 15 min without any treatment (before testing). On Day 2, 4, 6 and 8, control group (saline group) and model group (morphine group) received saline (10 mL/kg) and morphine (10 mg/kg), respectively. TAT group (3 nmol/g) and TAT-D2R-KT group (3 nmol/g) were injected (intraperitoneally, 10 ml/kg body weight) 1 hour before morphine injection. After injection, all mice were trained in the white chamber for 40 min. On Day 3, 5, 7 and 9, all mice were given normal saline, and then immediately placed in the black chamber for 40 min; on Day 10, after all mice explored freely for 15 min, the test ended, and the CPP scores (moving duration of mice) were shown in FIG. 6.
(§1) Then, the C-terminal of Pep1 to Pep5 was fused to the N-terminal of TAT respectively to obtain fusion peptides which could penetrate the blood-brain barrier.
Mice were given morphine (1 mg/kg) or normal saline for 8 days, and different polypeptides (3 nmol/g) of Example 9 were administered to mice via intraperitoneal injection (10 ml/kg) on Day 10; the expression of morphine-induced CPP was recorded according to the CPP experimental method in Example 5 on the second day after administration, and the results were shown in FIG. 17.

D2R/NR2B complex = target: T2, D2R/NR2B complex (Mus musculus, UniProt Q01097); experiment: Co-immunoprecipitation of hippocampus tissue from polypeptide-treated CPP mice and BS mice; format: in vivo
T2 construct: Co-immunoprecipitation was performed using a protein sample (100-500 μg protein) from hippocampus tissue; from tissue; host or cells: hippocampus tissue of CPP and BS mice treated in vivo
Method: Co-immunoprecipitation was performed using a protein sample (100-500 μg protein) from hippocampus tissue. NR2B and D1R or D2R were precipitated using an anti-NR2B and D2R, D2R or NR2B and 25 μl protein A/G+agarose bead slurry (SantaCruz Biotechnology, sc-2001), respectively.
The protein was then isolated on 8% SDS-PAGE gel and detected with a mouse antibody against NR2B and D2R. HRP-coupled secondary antibody and enhanced chemiluminescence method were used to detect the protein. Density analysis of bands was performed using image laboratory software.
In order to verify the effect of KT polypeptide of D2R on the D2R/NR2B complex in vivo, the C terminal of the region (K211-T225) was fused to the N terminal of transduction domain of HIV-1-type Tat protein (as set forth in SEQ ID NO: 6, hereinafter referred to as TAT) to obtain a fusion protein which can permeate blood-brain barrier, named TAT-D2R-KT.
CPP mice and BS mice were treated with TAT-D2R-KT respectively, and mice treated with TAT only were used as control (all treated by single intraperitoneal administration, 10 ml/kg body weight, medicament concentration 3 nmol/g). After 1 hour of treatment, analysis was performed according to the co-immunoprecipitation method in Example 1, and the results were shown in FIG. 4.

[2] = system: alcohol-induced behavioral sensitization in mice; experiment: Effects of different polypeptides on alcohol-induced behavioral sensitization in mice; format: in vivo; settings: 3 nmol/g i.p. 1 hour before alcohol (2.2 g/kg) on third day after training; TAT fusion peptides; n=10
Method: as §1
In order to verify that the polypeptide of the invention is also effective against alcohol-induced addiction, the following tests were carried out:
The training period lasted for 10 days, during which mice were administered alcohol (2.2 g/kg) or normal saline every other day and then immediately tested for 15 minutes. On the third day after training, 1 hour before alcohol administration, different polypeptides of Example 9 (3 nmol/g) were administered to mice via intraperitoneal injection (10 ml/kg) for drug induction, and a testing was carried out, and the results were shown in FIG. 19.

[3] = system: cocaine-induced behavioral sensitization in mice; experiment: Effects of different polypeptides on cocaine-induced behavioral sensitization in mice; format: in vivo; settings: 3 nmol/g i.p. 1 hour before cocaine (15 mg/kg) on sixth day of pause; TAT fusion peptides; n=10
Method: as §1
In order to verify that the polypeptide of the invention is also effective against cocaine-induced addiction, the following tests were carried out:
Mice were given cocaine (15 mg/kg) or normal saline and then tested for 30 minutes, repeated for 5 days, and followed by a 5-day pause of administration. On the sixth day of the pause, 1 hour before cocaine administration, different polypeptides of Example 9 (3 nmol/g) were administered to mice via intraperitoneal injection (10 ml/kg) for drug induction, and a testing was carried out, and the results were shown in FIG. 18.

binding of D2R to NR2B = binding of D2R to NR2B (Homo sapiens, UniProt Q13224); settings: Liu et al., Neuron 52, 897-909, FIGS. 3M and 3N; cited from earlier work
Sequence of binding of D2R to NR2B (Q13224 27-1484): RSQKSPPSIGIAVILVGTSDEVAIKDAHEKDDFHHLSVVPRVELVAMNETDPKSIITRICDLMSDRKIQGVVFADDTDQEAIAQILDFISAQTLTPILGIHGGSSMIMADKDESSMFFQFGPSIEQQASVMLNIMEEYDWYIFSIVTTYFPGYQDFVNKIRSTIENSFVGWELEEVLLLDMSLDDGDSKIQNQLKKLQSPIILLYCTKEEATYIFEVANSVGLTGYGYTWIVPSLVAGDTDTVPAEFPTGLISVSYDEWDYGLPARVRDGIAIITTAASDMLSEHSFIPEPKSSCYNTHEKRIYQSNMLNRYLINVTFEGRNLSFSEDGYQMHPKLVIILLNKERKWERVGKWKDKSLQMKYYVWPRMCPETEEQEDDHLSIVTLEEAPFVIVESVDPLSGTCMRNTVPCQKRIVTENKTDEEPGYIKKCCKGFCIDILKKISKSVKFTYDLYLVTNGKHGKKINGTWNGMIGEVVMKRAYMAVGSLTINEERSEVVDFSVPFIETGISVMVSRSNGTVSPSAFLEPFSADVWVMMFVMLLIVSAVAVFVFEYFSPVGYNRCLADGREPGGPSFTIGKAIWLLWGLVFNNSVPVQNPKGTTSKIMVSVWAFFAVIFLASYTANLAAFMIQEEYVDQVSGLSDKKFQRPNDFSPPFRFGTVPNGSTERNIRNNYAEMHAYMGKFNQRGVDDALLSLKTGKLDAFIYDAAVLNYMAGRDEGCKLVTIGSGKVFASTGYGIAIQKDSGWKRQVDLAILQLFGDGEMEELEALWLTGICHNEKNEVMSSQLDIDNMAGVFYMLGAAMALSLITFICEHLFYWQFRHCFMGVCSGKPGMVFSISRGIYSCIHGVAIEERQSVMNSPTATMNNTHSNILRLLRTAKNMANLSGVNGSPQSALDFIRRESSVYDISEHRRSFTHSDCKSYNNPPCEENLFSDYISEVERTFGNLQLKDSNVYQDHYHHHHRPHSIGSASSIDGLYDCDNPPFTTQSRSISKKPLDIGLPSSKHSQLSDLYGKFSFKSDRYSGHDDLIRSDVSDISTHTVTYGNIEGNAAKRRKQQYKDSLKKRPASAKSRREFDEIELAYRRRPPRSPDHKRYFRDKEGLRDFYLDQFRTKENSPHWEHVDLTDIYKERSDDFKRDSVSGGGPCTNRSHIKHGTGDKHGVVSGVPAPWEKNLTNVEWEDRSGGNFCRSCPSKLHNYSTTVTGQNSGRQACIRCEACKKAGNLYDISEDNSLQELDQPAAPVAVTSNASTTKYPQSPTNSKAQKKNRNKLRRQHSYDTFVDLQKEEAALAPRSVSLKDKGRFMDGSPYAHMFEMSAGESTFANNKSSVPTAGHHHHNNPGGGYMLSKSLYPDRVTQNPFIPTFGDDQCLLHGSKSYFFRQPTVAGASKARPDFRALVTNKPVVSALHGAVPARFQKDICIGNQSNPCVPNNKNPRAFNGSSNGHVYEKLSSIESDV

T1 sequence (Q01097 27-1482, other chains not shown): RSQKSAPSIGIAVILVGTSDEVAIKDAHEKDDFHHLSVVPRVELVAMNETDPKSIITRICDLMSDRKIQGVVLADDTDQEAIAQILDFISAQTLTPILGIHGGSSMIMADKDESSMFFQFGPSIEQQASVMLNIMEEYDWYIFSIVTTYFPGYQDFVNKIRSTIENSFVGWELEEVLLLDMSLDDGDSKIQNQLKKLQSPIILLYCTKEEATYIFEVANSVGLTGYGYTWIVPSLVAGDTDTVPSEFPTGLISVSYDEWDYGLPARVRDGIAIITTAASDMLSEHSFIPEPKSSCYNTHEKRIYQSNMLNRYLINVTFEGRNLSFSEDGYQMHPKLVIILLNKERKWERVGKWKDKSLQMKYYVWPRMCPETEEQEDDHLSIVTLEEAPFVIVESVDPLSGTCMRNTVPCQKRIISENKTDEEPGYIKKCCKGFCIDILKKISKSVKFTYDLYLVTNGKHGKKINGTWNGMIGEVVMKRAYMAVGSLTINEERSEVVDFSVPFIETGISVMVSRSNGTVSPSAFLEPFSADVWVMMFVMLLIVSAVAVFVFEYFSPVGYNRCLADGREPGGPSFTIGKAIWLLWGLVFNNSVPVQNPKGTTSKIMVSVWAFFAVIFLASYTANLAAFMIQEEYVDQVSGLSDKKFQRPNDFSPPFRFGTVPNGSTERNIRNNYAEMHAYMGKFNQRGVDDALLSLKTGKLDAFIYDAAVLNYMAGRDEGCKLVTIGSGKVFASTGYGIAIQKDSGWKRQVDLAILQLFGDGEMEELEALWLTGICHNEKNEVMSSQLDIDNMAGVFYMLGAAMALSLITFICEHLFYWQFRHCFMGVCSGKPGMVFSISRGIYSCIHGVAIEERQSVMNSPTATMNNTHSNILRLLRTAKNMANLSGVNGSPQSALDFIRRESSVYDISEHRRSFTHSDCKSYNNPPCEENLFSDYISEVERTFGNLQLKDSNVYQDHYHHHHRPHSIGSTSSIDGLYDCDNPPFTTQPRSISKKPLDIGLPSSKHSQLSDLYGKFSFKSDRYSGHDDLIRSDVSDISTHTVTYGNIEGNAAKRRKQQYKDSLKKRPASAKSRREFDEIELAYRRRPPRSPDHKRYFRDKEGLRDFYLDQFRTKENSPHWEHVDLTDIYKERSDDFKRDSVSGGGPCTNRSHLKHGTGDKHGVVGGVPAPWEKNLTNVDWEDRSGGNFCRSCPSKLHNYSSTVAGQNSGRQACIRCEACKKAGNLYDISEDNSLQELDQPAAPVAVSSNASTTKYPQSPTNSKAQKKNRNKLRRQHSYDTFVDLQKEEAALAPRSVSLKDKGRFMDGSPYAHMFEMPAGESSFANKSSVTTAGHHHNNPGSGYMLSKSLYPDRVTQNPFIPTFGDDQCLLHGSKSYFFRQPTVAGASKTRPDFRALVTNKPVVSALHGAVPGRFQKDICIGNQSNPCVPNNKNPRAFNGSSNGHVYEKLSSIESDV
T2 sequence (Q01097 27-1482, other chains not shown): as above

Molecule	precipitation of NR2B by GST fusion protein (pulldown, Western blot) (NR2B)	activity distance of morphine-CPP mice [1]	expression of sensitization behavior (alcohol-induced) [2]	expression of sensitization behavior (cocaine-induced) [3]	other results
KT region of D2R: GST fusion protein containing the KT region of D2R (K211-T225) (KIYIVLRRRRKRVNT; also: GST fusion)	precipitated with affinity				
KIYIVLRRRRKRVNT [Pep1, KT polypeptide, K211-T225 of the IL3 region of D2R; tested in vivo fused to TAT]		significantly reduced the activity distance	significantly inhibited the expression of sensitization behavior	significantly inhibited the expression of sensitization behavior	D2R/NR2B interaction in hippocampus tissue (co-immunoprecipitation) (D2R/NR2B complex; CPP mice and BS mice, single intraperitoneal administration 3 nmol/g, 1 hour after treatment, TAT only as control): competitively disrupted the D2R/NR2B interaction; interaction between D2R and NR2B (D2R/NR2B complex; summary statement of the inventors' finding, no conditions given): successfully reduced the interaction between D2R and NR2B
KIYIVLRRRRKRV [Pep3, variant of KT polypeptide, C-terminal truncated; tested fused to TAT]		significantly reduced the activity distance	significantly inhibited the expression of sensitization behavior	significantly inhibited the expression of sensitization behavior	
KVC region of D2R: GST fusion protein containing the KVC region of D2R (K211-V270) (KIYIVLRRRRKRVNTKRSSRAFRAHLRAPLKGNCTHPEDMKLCTVIMKSNGSFPVNRRRV; cysteine pairing not given here; also: GST fusion)	precipitated with affinity				
KIYIVLRRRGGGVNT [Pep5, variant with the mid-segment RKR mutated to GGG; tested fused to TAT]		failed to significantly reduce the activity distance	failed to inhibit the expression of sensitization behavior	failed to inhibit the expression of sensitization behavior	
P5: Liu et al. polypeptide of IL3 from D2R containing motif T225-A234 (TKRSSRAFRA; UniProt P14416 225-234, looked up, fragment) [Pep P5]					prevention of the binding of D2R to NR2B (binding of D2R to NR2B): successfully prevented the binding of D2R to NR2B
P4: Liu et al. polypeptide of IL3 from D2R (1210-K226) lacking the motif TKRSSRAFRA (IKIYIVLRRRRKRVNTK; UniProt P14416 210-226, looked up, fragment) [Pep P4]					prevention of the binding of D2R to NR2B (binding of D2R to NR2B): had no preventing effect
KIYIVLGGGRKRVNT [Pep4, variant with the mid-segment RRR mutated to GGG; tested fused to TAT]		failed to significantly reduce the activity distance	failed to inhibit the expression of sensitization behavior	failed to inhibit the expression of sensitization behavior	
KL region of D2R: GST fusion protein containing the KL region of D2R (K226-L240) (KRSSRAFRAHLRAPL; also: GST fusion; UniProt P14416 226-240, looked up, fragment)	could not be precipitated				
YIVLRRRRKRVNT [Pep2, variant of KT polypeptide, N-terminal truncated; tested fused to TAT]		significantly reduced the activity distance	significantly inhibited the expression of sensitization behavior	significantly inhibited the expression of sensitization behavior	
B1	precipitated with affinity				
